# Laboratory results from PMC8838787, “The Antiproliferative and Apoptotic Effects of a Novel Quinazoline Carrying Substituted-Sulfonamides: In Vitro and Molecular Docking Study” (Molecules, 2022).
# What was measured:
# [1] = test system: HepG2 (liver) cancer cells; assay: MTT cell viability assay, HepG2; type: cell-based; conditions: Homo sapiens, 48 h, average ± SD (n = 3)
# Experimental: (§1) Compounds 4a–n were subjected to the cytotoxicity screening of the cell lines MCF-7 (breast), LoVo (colon), HepG2 (liver) and A549 (lung) carcinoma cells as well as HUVEC normal cell lines. The MTT assay was employed to assess cytotoxicity after 48 h of treatment with different concentrations of each compound and doxorubicin was used as a reference drug. The results were presented in Table 1 as growth inhibitory concentration (IC50 values).
# (§2) Cell viability was determined using 3-(4,5-dimethylthiazol-2-yl)-2,5-diphenyl tetrazolium bromide (MTT) assay as stated previously. In brief, A549 (lung), HepG2 (liver), LoVo (colon), MCF-7 (breast) cancer cells as well as normal cells (HUVEC) were seeded in 96-well plates (10^5 per well) and compounds were added in a different final concentration. All cells were treated for 48 h, and then 10μL of MTT reagent (5 mg/mL) was added to each well and further incubated for 4 h. Thereafter, 0.1 mL of acidified isopropanol was added to solubilize formazan product and the developed color was measured at 570 nm in Microplate ELISA Reader (BioTek, Elx-800, Winooski, VT, USA). The IC50 values (concentration required for 50% inhibition of cell viability) were calculated using dose response curve. Cell viability was calculated as = (Ab Treated/Ab Control) × 100.
# (§3) The A549, HepG2, LoVo and MCF-7 cancer cell lines were obtained from the German Collection of Microorganisms and Cell Cultures (DSMZ) (Braunschweig, Germany). For Human umbilical vein endothelial cells (HUVEC cells), it was purchased from American Type Culture Collection (16549; Cat no. PCS-100-010; ATTCC, Manassas, VA, USA).
# [2] = test system: LoVo (colon) cancer cells; assay: MTT cell viability assay, LoVo; type: cell-based; conditions: Homo sapiens, 48 h, average ± SD (n = 3)
# Experimental: as §1, §2, §3
# [3] = test system: A549 (lung) cancer cells; assay: MTT cell viability assay, A549; type: cell-based; conditions: Homo sapiens, A549, 48 h, average ± SD (n = 3)
# Experimental: as §1, §2, §3
# [4] = test system: HUVEC normal cells; assay: MTT cell viability assay, normal HUVEC; type: cell-based; conditions: Homo sapiens, 48 h, average ± SD (n = 3)
# Experimental: as §1, §2, §3
# [5] = test system: MCF-7 (breast) cancer cells; assay: MTT cell viability assay, MCF-7; type: cell-based, human; conditions: for IC50: Homo sapiens, MCF7, 48 h, average ± SD (n = 3); for cytotoxic activity (in words, SAR discussion): 48 h
# Experimental: as §1, §2, §3
Compound,IC50 [1],IC50 [2],IC50 [3],melting point,IC50 [5],IC50 [4],"cytotoxic activity (in words, SAR discussion) [5]"
COc1cccc2c(=O)n(-c3ccc(S(=O)(=O)NCC(=O)Nc4ccccc4)cc3)c(SCC(=O)Nc3ccccc3)nc12 [Compound 4a],35 ± 1.2 µM,37.5 ± 1.8 µM,19.6 ± 1.7 µM,165 to 167 °C,14.2 ± 0.4 µM,20.9 ± 1 µM,–
COc1cccc2c(=O)n(-c3ccc(S(=O)(=O)NCC(=O)Nc4ccccc4C)cc3)c(SCC(=O)Nc3ccccc3C)nc12 [Compound 4b],33.7 ± 0.8 µM,35.8 ± 1 µM,11.4 ± 1.6 µM,102 to 104 °C,36.2 ± 2 µM,32.7 ± 1.2 µM,–
COc1cccc2c(=O)n(-c3ccc(S(=O)(=O)NCC(=O)Nc4cccc(C)c4)cc3)c(SCC(=O)Nc3cccc(C)c3)nc12 [Compound 4c],> 40 µM,> 40 µM,> 40 µM,112 to 114 °C,> 40 µM,> 40 µM,abolishes the cytotoxicity
"COc1cc(NC(=O)CNS(=O)(=O)c2ccc(-n3c(SCC(=O)Nc4cc(OC)cc(OC)c4)nc4c(OC)cccc4c3=O)cc2)cc(OC)c1 [Compound 4j, N-(3,5-Dimethoxyphenyl)-2-((3-(4-N-(2((3,5-dimethoxyphenyl)amino)-2-oxoethyl)-sulfa-moyl)phenyl-8-methoxy-4-oxo-3,4-dihydroquinazolin-2-yl)thio)acetamide]",> 40 µM,> 40 µM,> 40 µM,239 to 241 °C,> 40 µM,> 40 µM,–
"COc1cccc2c(=O)n(-c3ccc(S(=O)(=O)NCC(=O)Nc4ccc([N+](=O)[O-])cc4C)cc3)c(SCC(=O)Nc3ccc([N+](=O)[O-])cc3C)nc12 [Compound 4l, 2-(4-(8-Methoxy-2-((2-((2-methyl-4-nitrophenyl)amino)-2-oxoethyl)thio)-4-oxoquinazolin-3(4H)-yl)phenylsulfonamido)-N-(2-methyl-4-nitrophenyl)acetamide]",> 40 µM,> 40 µM,> 40 µM,127 to 129 °C,> 40 µM,> 40 µM,–
"COc1cccc2c(=O)n(-c3ccc(S(=O)(=O)NCC(=O)Nc4c(C)cccc4[N+](=O)[O-])cc3)c(SCC(=O)Nc3c(C)cccc3[N+](=O)[O-])nc12 [Compound 4m, 2-(4-(8-Methoxy-2-((2-((2-methyl-6-nitrophenyl)amino)-2-oxoethyl)thio)-4-oxoquinazolin-3(4H)-yl)phenylsulfonamido)-N-(2-methyl-6-nitrophenyl)acetamide]",> 40 µM,> 40 µM,> 40 µM,272 to 274 °C,> 40 µM,> 40 µM,–

# More lines, main results first:
IC50 [1],IC50 [2],IC50 [3],melting point,IC50 [5],Compound,IC50 [4],"cytotoxic activity (in words, SAR discussion) [5]"
> 40 µM,> 40 µM,> 40 µM,246 to 248 °C,> 40 µM,"CCc1ccccc1NC(=O)CNS(=O)(=O)c1ccc(-n2c(SCC(=O)Nc3ccccc3CC)nc3c(OC)cccc3c2=O)cc1 [Compound 4e, N-(2-ethylphenyl)-2-((3-(4-(N-(2-((2-ethylphenyl)amino)-2-oxoethyl)sulfamoyl)-phe-nyl)-8-methoxy-4-oxo-3,4-dihydroquinazolin-2yl)thio)acetamide]",> 40 µM,no antiproliferative
> 40 µM,> 40 µM,> 40 µM,219 to 221 °C,> 40 µM,"CCc1ccc(NC(=O)CNS(=O)(=O)c2ccc(-n3c(SCC(=O)Nc4ccc(CC)cc4)nc4c(OC)cccc4c3=O)cc2)cc1 [Compound 4g, N-(4-ethylphenyl)-2-((3-(4-(N-(2-((4-ethylphenyl)amino)-2-oxoethyl)sulfamoyl)-phenyl)-8-methoxy-4-oxo-3,4-dihydroquinazolin-2yl)thio)acetamide]",> 40 µM,no antiproliferative
25.4 ± 0.95 µM,31.7 ± 1 µM,13.3 ± 0.85 µM,117 to 119 °C,31.6 ± 1.3 µM,"COc1ccc(NC(=O)CNS(=O)(=O)c2ccc(-n3c(SCC(=O)Nc4ccc(OC)cc4)nc4c(OC)cccc4c3=O)cc2)cc1 [Compound 4h, 2-(4-(8-Methoxy-2-((2-((4-methoxyphenyl)amino)-2-oxoethyl)thio)-4-oxoquinazolin-3(4H)-yl)phenylsulfonamido)-N-(4-methoxy-phenyl)acetamide]",–,–
20.6 ± 1.6 µM,22 ± 1.01 µM,13.8 ± 0.5 µM,> 350 °C,26.4 ± 0.79 µM,"CCOc1ccc(NC(=O)CNS(=O)(=O)c2ccc(-n3c(SCC(=O)Nc4ccc(OCC)cc4)nc4c(OC)cccc4c3=O)cc2)cc1 [Compound 4i, N-(4-Ethoxyphenyl)-2-((3-(4-N-(2((4-ethoxyphenyl)amino)-2-oxoethyl)sulfamoyl)-phenyl-8-methoxy-4-oxo-3,4-dihydroquinazolin-2-yl)thio)acetamide]",18.2 ± 2.2 µM,–
> 40 µM,> 40 µM,> 40 µM,260 to 262 °C,> 40 µM,COc1cc(NC(=O)CNS(=O)(=O)c2ccc(-n3c(SCC(=O)Nc4cc(OC)c(OC)c(OC)c4)nc4c(OC)cccc4c3=O)cc2)cc(OC)c1OC [Compound 4k],> 40 µM,–
–,1.5 ± 0.05 µM,1.1 ± 0.01 µM,–,1.4 ± 0.3 µM,"COc1cccc2c1C(=O)c1c(O)c3c(c(O)c1C2=O)C[C@@](O)(C(=O)CO)C[C@@H]3O[C@H]1C[C@H](N)[C@H](O)[C@H](C)O1 [Doxorubicin, reference compound]",3.7 ± 0.2 µM,–
